Measured values: patent publication US10364247B2, “Preparation and use of novel protein kinase inhibitors” (Ruijin Hospital Affiliated to Shanghai Jiao Tong University …, priority 2015, dated 2019)

Key:
Type in all cases: cell-based, murine
BaF3-KRASD12 = test: Oncogenic RAS dependent cell proliferation (CellTiter Glo); conditions: Mus musculus, BaF3-KRASD12 cells, 48 hours, read-out: KRas-BaF3 IC50
Experimental: (§1) The BaF/3 cell line transformed with oncogenic NRAS or KRAS (BaF/3-NRASD12 or BaF/3-KRASD12) and the parental BaF/3 cells were used to measure the abilities of compounds of the invention to suppress RAS transformation (Table 5). Cells were seeded at a density of 5000 cells/well into 96-well plates. […] The background control wells to which media with no cells added and the vehicle control wells were included on each plate in triplicate. Cell viability was determined using CellTiter Glo Assay (Promega) according to manufacture's instruction with a minor modification of diluting 1 part CellTiter Glo reagent to 4 parts phosphate buffered saline (PBS) before use. The luminescence value was read out by an Envision (PerkinElmer).

BaF3-NRASD12 = test: as above; conditions: Mus musculus, BaF3-NRASD12 cells, 48 hours, read-out: NRas-BaF3 IC50
Experimental: as §1

Wt-BaF3 = test: Parental Ba/F3 cell proliferation (CellTiter Glo); conditions: Mus musculus, parental BaF/3 cells, 48 hours
Experimental: (§2) The murine cell line used is the BaF/3 cell line transformed with BCR/ABL cDNA (BaF/3-p210) or BCR/ABL-T315I mutant (Ba/F3-p210-T315I). These cells are maintained in RPMI/10% fetal calf serum (RPMI/FCS) supplemented with penicillin 50 μg/mL, streptomycin 50 μg/mL and L-glutamine […]. Untransformed BaF/3 cells (Wt-BaF/3) are similarly maintained with the addition of 15% of WEHI conditioned medium as a source of IL3.
as §1

BaF3-TEL-LYN = target: T1, BaF3-TEL-LYN (Homo sapiens, UniProt P07948); test: Antiproliferative activity, kinase-dependent Ba/F3 cells (MTT/MTS); conditions: 48 hours, cell viability, read-out: tel-LYN IC50
T1 construct: fused on or other part: P41212 (Transcription factor ETV6)
T1 sequence (P07948 whole entry, change not shown, the tested form may be a part): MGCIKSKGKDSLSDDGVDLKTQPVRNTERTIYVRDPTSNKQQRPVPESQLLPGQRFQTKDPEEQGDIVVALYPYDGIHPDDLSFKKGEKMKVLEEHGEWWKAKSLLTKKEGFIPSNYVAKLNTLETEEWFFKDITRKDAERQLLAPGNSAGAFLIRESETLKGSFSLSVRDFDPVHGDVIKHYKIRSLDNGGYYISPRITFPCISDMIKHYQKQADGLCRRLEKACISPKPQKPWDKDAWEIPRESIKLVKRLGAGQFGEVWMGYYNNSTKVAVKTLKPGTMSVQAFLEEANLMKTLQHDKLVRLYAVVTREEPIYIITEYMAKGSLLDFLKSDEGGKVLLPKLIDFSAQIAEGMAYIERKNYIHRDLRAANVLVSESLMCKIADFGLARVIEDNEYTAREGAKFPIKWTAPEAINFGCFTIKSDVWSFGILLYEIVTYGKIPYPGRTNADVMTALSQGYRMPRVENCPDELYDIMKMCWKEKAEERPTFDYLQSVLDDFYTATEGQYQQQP
Experimental: (§3) Following up on the kinome data, the ability of compounds disclosed in the present invention to inhibit proliferation of cells that are dependent on selected protein kinases was tested. […] In addition, compounds were assayed to measure their capacity to inhibit TIE1, LYN, EML4-ALK, INSR and HCK kinases.
as §2
(§4) Cells were seeded at a density of 20,000 cells/well into 96-well plates.
(§5) The background control wells to which media with no cells added and the vehicle control wells were included on each plate in triplicate. Cell viability was determined using MTT (Sigma, St. Louis, Mo., USA) and MTS (Promega, Madison, Wis., USA), according to the manufacturer's instructions. Results were analyzed using GraphPad Prism 5.0 (GraphPad Software, San Diego, Calif.) and IC50 values were calculated from cell viability dose-response curves and defined as the concentration of compound needed to reduce cell viability to 50% of a vehicle control (DMSO) (Table 3).
(§6) Cell proliferation assays of compounds of the invention against TIE1, LYN, EML4-ALK, INSR and Hck were conducted using identical methods as described above for BCR/ABL, except that BaF3-TEL-TIE1, BaF3-TEL-LYN, BaF3-EML4-ALK, BaF3-TEL-INSR, and BaF3-TEL-HCK are used instead of BaF3-BCR/ABL (Table 3 and 4).

BaF3-TEL-TIE1 = target: T2, BaF3-TEL-TIE1 (Homo sapiens, UniProt P35590); test: as above; conditions: 48 hours, cell viability, read-out: tel-TIE1 IC50
T2 construct: fused on or other part: P41212 (Transcription factor ETV6)
T2 sequence (P35590 whole entry, change not shown, the tested form may be a part): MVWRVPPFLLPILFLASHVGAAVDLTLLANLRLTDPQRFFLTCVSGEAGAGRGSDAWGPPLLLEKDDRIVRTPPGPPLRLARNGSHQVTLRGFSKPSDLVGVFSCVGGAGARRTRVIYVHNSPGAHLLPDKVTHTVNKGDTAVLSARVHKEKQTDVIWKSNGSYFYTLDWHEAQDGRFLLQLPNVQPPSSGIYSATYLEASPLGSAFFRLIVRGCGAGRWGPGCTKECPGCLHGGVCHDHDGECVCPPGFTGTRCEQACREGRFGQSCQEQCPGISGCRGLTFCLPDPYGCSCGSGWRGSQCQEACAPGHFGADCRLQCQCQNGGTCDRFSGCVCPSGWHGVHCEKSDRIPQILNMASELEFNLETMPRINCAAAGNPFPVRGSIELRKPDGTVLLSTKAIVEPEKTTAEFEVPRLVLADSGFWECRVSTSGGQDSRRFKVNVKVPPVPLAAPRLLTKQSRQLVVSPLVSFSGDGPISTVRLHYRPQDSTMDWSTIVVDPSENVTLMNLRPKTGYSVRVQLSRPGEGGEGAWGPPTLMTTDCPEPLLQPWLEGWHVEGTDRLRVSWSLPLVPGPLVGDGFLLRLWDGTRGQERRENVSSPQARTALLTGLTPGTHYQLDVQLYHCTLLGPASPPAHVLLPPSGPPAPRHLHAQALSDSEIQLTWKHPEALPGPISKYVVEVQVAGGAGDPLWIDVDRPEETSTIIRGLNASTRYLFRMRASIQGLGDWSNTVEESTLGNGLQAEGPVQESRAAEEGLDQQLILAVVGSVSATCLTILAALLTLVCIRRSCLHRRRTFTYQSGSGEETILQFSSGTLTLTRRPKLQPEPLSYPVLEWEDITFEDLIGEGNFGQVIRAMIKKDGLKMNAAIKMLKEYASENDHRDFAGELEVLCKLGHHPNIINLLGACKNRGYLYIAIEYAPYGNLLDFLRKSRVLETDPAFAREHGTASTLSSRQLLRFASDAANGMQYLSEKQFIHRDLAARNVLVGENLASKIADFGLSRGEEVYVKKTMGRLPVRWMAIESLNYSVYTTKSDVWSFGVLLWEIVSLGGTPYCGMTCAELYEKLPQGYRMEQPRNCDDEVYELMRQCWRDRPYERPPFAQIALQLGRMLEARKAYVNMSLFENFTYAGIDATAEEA
Experimental: as §3, §2, §4, §5, §6

BaF3-EML4-ALK = target: T3, BaF3-EML4-ALK (Homo sapiens, UniProt Q9UM73); test: as above; conditions: 48 hours, cell viability, read-out: EML4-ALK IC50
T3 construct: fused on or other part: Q9HC35 (Echinoderm microtubule-associated protein-like 4)
T3 sequence (Q9UM73 whole entry, change not shown, the tested form may be a part): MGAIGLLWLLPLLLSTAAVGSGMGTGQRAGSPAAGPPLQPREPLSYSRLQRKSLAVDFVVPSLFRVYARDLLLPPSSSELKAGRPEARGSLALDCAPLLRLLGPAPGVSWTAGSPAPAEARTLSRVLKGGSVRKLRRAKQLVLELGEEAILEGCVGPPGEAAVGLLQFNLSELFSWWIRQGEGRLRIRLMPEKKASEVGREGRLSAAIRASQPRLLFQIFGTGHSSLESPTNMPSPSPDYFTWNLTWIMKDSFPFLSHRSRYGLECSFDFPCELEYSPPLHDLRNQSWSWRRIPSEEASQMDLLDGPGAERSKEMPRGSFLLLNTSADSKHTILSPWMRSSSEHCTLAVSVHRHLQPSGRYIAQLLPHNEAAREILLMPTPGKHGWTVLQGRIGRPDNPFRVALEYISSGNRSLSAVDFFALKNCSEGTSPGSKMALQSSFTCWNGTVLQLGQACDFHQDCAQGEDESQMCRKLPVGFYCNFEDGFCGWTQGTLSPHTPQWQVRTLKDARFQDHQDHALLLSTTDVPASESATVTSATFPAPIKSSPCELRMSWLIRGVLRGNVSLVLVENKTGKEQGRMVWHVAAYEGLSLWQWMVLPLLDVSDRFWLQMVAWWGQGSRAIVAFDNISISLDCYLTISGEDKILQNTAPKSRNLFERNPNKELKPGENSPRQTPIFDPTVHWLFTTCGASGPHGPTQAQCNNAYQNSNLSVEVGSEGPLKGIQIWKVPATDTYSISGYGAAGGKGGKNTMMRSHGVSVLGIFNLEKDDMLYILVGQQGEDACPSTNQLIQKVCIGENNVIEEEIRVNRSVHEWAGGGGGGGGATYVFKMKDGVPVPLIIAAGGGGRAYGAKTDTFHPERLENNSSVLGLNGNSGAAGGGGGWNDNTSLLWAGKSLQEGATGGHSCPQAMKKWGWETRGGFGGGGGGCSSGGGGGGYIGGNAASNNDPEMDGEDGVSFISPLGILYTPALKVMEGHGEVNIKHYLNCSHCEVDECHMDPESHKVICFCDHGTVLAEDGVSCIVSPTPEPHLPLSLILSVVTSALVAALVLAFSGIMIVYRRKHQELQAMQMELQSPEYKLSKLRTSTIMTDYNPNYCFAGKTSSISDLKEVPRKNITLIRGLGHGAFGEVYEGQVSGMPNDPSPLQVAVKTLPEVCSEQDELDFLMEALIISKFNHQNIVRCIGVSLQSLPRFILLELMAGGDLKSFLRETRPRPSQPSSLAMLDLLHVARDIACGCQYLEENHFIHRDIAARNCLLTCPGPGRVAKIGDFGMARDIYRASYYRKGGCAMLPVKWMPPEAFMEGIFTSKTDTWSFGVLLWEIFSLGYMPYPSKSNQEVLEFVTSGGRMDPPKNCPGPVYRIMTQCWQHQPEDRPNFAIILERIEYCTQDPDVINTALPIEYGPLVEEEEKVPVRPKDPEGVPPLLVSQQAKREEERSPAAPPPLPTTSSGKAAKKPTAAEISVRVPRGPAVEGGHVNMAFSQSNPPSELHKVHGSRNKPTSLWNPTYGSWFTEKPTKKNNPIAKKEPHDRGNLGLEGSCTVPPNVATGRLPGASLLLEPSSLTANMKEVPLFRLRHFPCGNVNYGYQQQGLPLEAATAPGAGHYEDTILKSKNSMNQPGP
Experimental: as §3, §2, §4, §5, §6

BaF3-BCR/ABL = target: T4, BaF3-BCR/ABL (Homo sapiens, UniProt P00519); test: as above; conditions: 48 hours, cell viability, read-out: BCR/ABL IC50
T4 construct: fused on or other part: P11274 (Breakpoint cluster region protein)
Experimental: as §3, §2, §4, §5

BaF3-BCR/ABL-T315I = target: T5, BaF3-BCR/ABL-T315I (Homo sapiens, UniProt P00519, T315I, cells depend on it); test: as above; conditions: 48 hours, cell viability, read-out: BCR/ABL T315I IC50
T5 construct: fused on or other part: P11274 (Breakpoint cluster region protein)
Experimental: as §3, §2, §4, §5

Cc1ccc(NC(=O)c2cccc(C(F)(F)F)c2)cc1N1Cc2cnc(NC3CC3)nc2N(C)C1 [IA-4, N-(3-(7-(cyclopropylamino)-1-methyl-1,4-dihydropyrimido[4,5-d]pyrimidin-3(2H)-yl)-4-methylphenyl)-3-(trifluoromethyl)benzamide]
IC50 (BaF3-KRASD12): 8.33 µM
IC50 (BaF3-NRASD12): 9.56 µM
IC50 (Wt-BaF3): 11.3 µM
GI50 (BaF3-TEL-LYN): 1.32 µM
GI50 (BaF3-TEL-TIE1): 4.97 µM
GI50 (BaF3-EML4-ALK): 6.79 µM
GI50 (BaF3-BCR/ABL): 0.956 µM
GI50 (BaF3-BCR/ABL-T315I): 9.72 µM

Cc1ccc(NC(=O)c2cccc(C(F)(F)F)c2)cc1N1Cc2cnc(N[C@H](C)CO)nc2N(C)C1 [IA-7, (R)—N-(3-(7-((1-hydroxypropan-2-yl)amino)-1-methyl-1,4-dihydropyrimido[4,5-d]pyrimidin-3(2H)-yl)-4-methylphenyl)-3-(trifluoromethyl)benzamide]
IC50 (BaF3-KRASD12): 8.1 µM
IC50 (BaF3-NRASD12): 8.28 µM
IC50 (Wt-BaF3): 24.4 µM
GI50 (BaF3-TEL-LYN): 4.48 µM
GI50 (BaF3-TEL-TIE1): 4.22 µM
GI50 (BaF3-EML4-ALK): 7.47 µM
GI50 (BaF3-BCR/ABL): 0.665 µM
GI50 (BaF3-BCR/ABL-T315I): > 10 µM

Cc1ccc(NC(=O)c2cccc(C(F)(F)F)c2)cc1N1Cc2cnc(N[C@@H](C)CO)nc2N(C)C1 [IA-8, (S)—N-(3-(7-((1-hydroxypropan-2-yl)amino)-1-methyl-1,4-dihydropyrimido[4,5-d]pyrimidin-3(2H)-yl)-4-methylphenyl)-3-(trifluoromethyl)benzamide]
IC50 (BaF3-KRASD12): 7.57 µM
IC50 (BaF3-NRASD12): 5.21 µM
IC50 (Wt-BaF3): 17.9 µM
GI50 (BaF3-TEL-LYN): 2.5 µM
GI50 (BaF3-TEL-TIE1): 3.65 µM
GI50 (BaF3-EML4-ALK): 9.22 µM
GI50 (BaF3-BCR/ABL): 1.94 µM
GI50 (BaF3-BCR/ABL-T315I): > 10 µM

CN1CN(c2ccc(F)c(Cl)c2)Cc2cnc(Nc3ccc(N4CCOCC4)nc3)nc21 [ID-2, 6-(3-chloro-4-fluorophenyl)-8-methyl-N-(6-morpholinopyridin-3-yl)-5,6,7,8-tetrahydropyrimido[4,5-d]pyrimidin-2-amine]
GI50 (BaF3-TEL-LYN): 20.5 µM
GI50 (BaF3-TEL-TIE1): 11.8 µM
GI50 (BaF3-EML4-ALK): > 10 µM
GI50 (BaF3-BCR/ABL): > 10 µM
GI50 (BaF3-BCR/ABL-T315I): > 10 µM

COc1ccc(NC(=O)c2cccc(C(F)(F)F)c2)cc1N1Cc2cnc(Nc3ccc(C)nc3)nc2N(C)C1 [IC-6, N-(4-methoxy-3-(1-methyl-7-((6-methylpyridin-3-yl)amino)-1,4-dihydropyrimido[4,5-d]pyrimidin-3(2H)-yl)phenyl)-3-(trifluoromethyl)benzamide]
IC50 (BaF3-KRASD12): 10.3 µM
IC50 (BaF3-NRASD12): 8.15 µM
IC50 (Wt-BaF3): 22.8 µM
GI50 (BaF3-TEL-LYN): ~8.23 µM
GI50 (BaF3-TEL-TIE1): 5.18 µM
GI50 (BaF3-EML4-ALK): ~9.03 µM
GI50 (BaF3-BCR/ABL): 0.387 µM
GI50 (BaF3-BCR/ABL-T315I): 8 µM

Cc1ccc(Nc2ncc3c(n2)N(C)CN(c2cccc(NC(=O)c4cccc(C(F)(F)F)c4)c2)C3)cn1 [IC-5, N-(3-(1-methyl-7-((6-methylpyridin-3-yl)amino)-1,4-dihydropyrimido[4,5-d]pyrimidin-3(2H)-yl)phenyl)-3-(trifluoromethyl)benzamide]
IC50 (BaF3-KRASD12): > 10 µM
IC50 (BaF3-NRASD12): > 10 µM
IC50 (Wt-BaF3): 29.3 µM
GI50 (BaF3-TEL-LYN): > 10 µM
GI50 (BaF3-TEL-TIE1): 9.29 µM
GI50 (BaF3-EML4-ALK): > 10 µM
GI50 (BaF3-BCR/ABL): 0.94 µM
GI50 (BaF3-BCR/ABL-T315I): > 10 µM

CN1CN(c2ccc(Cl)c(C(F)(F)F)c2)Cc2cnc(Nc3ccc(N4CCOCC4)nc3)nc21 [ID-1, 6-(4-chloro-3-(trifluoromethyl)phenyl)-8-methyl-N-(6-morpholinopyridin-3-yl)-5,6,7,8-tetrahydropyrimido[4,5-d]pyrimidin-2-amine]
GI50 (BaF3-TEL-LYN): > 10 µM
GI50 (BaF3-TEL-TIE1): > 10 µM
GI50 (BaF3-EML4-ALK): > 10 µM
GI50 (BaF3-BCR/ABL-T315I): > 10 µM

Cc1ccc(NC(=O)c2cccc(C(F)(F)F)c2)cc1N1Cc2cnc(NCCc3c[nH]cn3)nc2N(C)C1 [IA-6, N-(3-(7-((2-(1H-imidazol-4-yl)ethyl)amino)-1-methyl-1,4-dihydropyrimido[4,5-d]pyrimidin-3(2H)-yl)-4-methylphenyl)-3-(trifluoromethyl)benzamide]
IC50 (BaF3-KRASD12): 5.53 µM
IC50 (BaF3-NRASD12): 5.5 µM
IC50 (Wt-BaF3): 5.14 µM
GI50 (BaF3-TEL-LYN): ~3.21 µM
GI50 (BaF3-TEL-TIE1): 3.7 µM
GI50 (BaF3-EML4-ALK): ~3.36 µM
GI50 (BaF3-BCR/ABL): 2.22 µM
GI50 (BaF3-BCR/ABL-T315I): 4.45 µM
